Data on seven molecules can be found in patent publication US7723384B2, “Keto lactam compounds and use thereof” (Abbott GmbH & Co. KG., priority 2003, dated 2010).

Experiment [1] concerns the target T1, human dopamine D3 receptors (Homo sapiens, UniProt P35462).
T1 construct: expressed in transfected cells; membranes)
As to the kind of experiment: Dopamine D3 receptor binding, displacement of [125I]-iodosulpride. To be noted: membranes from HEK-293 cells with stably expressed human D3 receptors, 0.1 nM [125I]-iodosulpride. On the procedure: (§1) The substance to be tested was dissolved either in methanol/Chremophor® (BASF-AG) or in dimethyl sulfoxide and then diluted with water to the desired concentration.
(§2) Triplicate mixtures were carried out.
The incubation buffer comprised 50 mM Tris, 120 mM NaCl, 5 mM KCl, 2 mM CaCl2, 2 mM MgCl2 and 0.1% bovine serum albumin, 10 μM quinolone, 0.1% ascorbic acid (prepared fresh each day). The buffer was adjusted to pH 7.4 with HCl.
(§3) III. Measurement and Evaluation:
(§4) After incubation at 25° C. for 60 minutes, the mixtures were filtered under vacuum through Whatman GF/B glass fiber filters using a cell harvester. The filters were transferred by a filter transfer system into scintillation vials. After addition of 4 ml of Ultima Gold® (Packard), the samples were shaken for one hour and then the radioactivity was counted in a beta counter (Packard, Tricarb 2000 or 2200CA). The cp values were converted into dpm by means of a standard quench series with the aid of the instrument's own program.
(§5) Evaluation of the inhibition plots took place by iterative nonlinear regression analysis using the Statistical Analysis System (SAS) similar to the “LIGAND” program described by Munson and Rodbard.
In general terms: Displacement assays read how much labelled ligand stays bound in the presence of the test substance.

Experiment [2] addresses T2, human dopamine D2L receptors (long isoform) (Homo sapiens, UniProt P14416).
T2 construct: expressed in transfected cells; membranes)
Description: Dopamine D2L receptor binding, displacement of [125I]-iodospiperone. As to conditions: ratio Ki(D2L)/Ki(D3); HEK-293 membranes with human D2L and D3 receptors. On the procedure: as §1
II. Dopamine D2L Receptor:
as §2
The incubation buffer comprised 50 mM Tris, 120 mM NaCl, 5 mM KCl, 2 mM CaCl2, 2 mM MgCl2 and 0.1% bovine serum albumin. The buffer was adjusted to pH 7.4 with HCl.
as §3, §4, §5

Structures can show the parent of a compound that is named as a salt.

T2 sequence (P14416 whole entry, canonical isoform): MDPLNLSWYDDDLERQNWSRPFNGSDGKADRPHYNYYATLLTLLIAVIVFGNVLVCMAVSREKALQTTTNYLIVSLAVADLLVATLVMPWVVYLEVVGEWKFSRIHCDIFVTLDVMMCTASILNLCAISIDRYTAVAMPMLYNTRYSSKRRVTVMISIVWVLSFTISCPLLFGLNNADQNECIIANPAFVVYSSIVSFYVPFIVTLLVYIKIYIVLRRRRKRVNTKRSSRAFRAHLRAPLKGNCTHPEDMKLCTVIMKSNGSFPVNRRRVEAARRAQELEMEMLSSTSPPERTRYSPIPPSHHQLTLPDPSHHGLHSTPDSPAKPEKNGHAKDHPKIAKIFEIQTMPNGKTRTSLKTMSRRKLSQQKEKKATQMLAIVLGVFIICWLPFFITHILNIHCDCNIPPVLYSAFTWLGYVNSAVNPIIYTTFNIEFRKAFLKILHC
T1 sequence (P35462 whole entry): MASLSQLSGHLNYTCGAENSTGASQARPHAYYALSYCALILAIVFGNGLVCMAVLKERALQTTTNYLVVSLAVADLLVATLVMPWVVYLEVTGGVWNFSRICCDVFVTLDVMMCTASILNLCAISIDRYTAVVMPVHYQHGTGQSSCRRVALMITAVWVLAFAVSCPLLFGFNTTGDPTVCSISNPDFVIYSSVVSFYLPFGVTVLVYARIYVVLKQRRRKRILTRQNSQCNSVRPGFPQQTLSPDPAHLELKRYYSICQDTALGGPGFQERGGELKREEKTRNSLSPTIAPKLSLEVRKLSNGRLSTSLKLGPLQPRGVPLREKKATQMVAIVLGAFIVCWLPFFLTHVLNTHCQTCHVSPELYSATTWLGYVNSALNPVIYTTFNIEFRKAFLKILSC

A word on the Ki: it is the dissociation constant of the complex between target and ligand, obtained from inhibition or displacement. Read a low Ki as tighter binding. On to `CC(C)(C)c1nc(C2CC2)cc(N2CCN(CCCCN3C(=O)CCC(=O)c4ccccc43)CC2)n1` [Example 16, 1-{4-[4-(2-tert-Butyl-6-cyclopropylpyrimidin-4-yl)piperazin-1-yl]butyl}-3,4-dihydro-1H-benzo[b]azepine-2,5-dione], for which the Ki in experiment [1] came to 0.96 nM. In addition, the “Selectivity vs. D2L (Ki(D2L)/Ki(D3))” value in experiment [2] is listed as 62.
For `O=C1CCC(=O)N(CCCCN2CCN(c3cc(Cl)cc(Cl)c3)CC2)c2ccccc21` [Example 86, 1-{4-[4-(3,5-Dichlorophenyl)-2,5-piperazin-1-yl]butyl}-3,4-dihydro-1H-benzo[b]azepine-2,5-dione fumarate], the inhibitory constant (Ki) in experiment [1] is 2 nM. For the same molecule, in experiment [2], the “Selectivity vs. D2L (Ki(D2L)/Ki(D3))” value is recorded as 56.
The matching figures for `CCCc1cc(N2CCN(CCCCN3C(=O)CCC(=O)c4ccccc43)CC2)nc(C(C)(C)C)n1.Cl` [Example 7, 1-{4-[4-(2-tert-Butyl-6-propylpyrimidin-4-yl)piperazin-1-yl]butyl}-3,4-dihydro-1H-1-benzazepine-2,5-dione hydrochloride]: 1.33 nM and 118.
The molecule `CC(C)(C)c1nc(N2CCN(C/C=C/CN3C(=O)CCC(=O)c4ccccc43)CC2)cc(C(F)(F)F)n1` [Example 4, 1-((2E)-4-{4-[2-tert-Butyl-6-(trifluoromethyl)pyrimidin-4-yl]piperazin-1-yl}but-2-enyl)-3,4-dihydro-1H-1-benzazepine-2,5-dione] gave a Ki in experiment [1] of 1.74 nM. For the same molecule, in experiment [2], the “Selectivity vs. D2L (Ki(D2L)/Ki(D3))” value is 155.
For `O=C(O)/C=C/C(=O)O.O=C1CCC(=O)N(CCCCN2CCN(c3cc(C(F)(F)F)cc(C(F)(F)F)c3)CC2)c2ccccc21` [Example 87, 1-{4-[4-(3,5-Bis(trifluoromethyl)phenyl)piperazin-1-yl]butyl}-3,4-dihydro-1H-benzo[b]azepine-2,5-dione fumarate], in that order: 7.4 nM and 129.
The matching figures for `CC(C)(C)c1cc(N2CCN(CCCCN3C(=O)CCC(=O)c4ccccc43)CC2)nc(C(C)(C)C)n1.Cl` [Example 10, 1-{4-[4-(2,6-Di-tert-butylpyrimidin-4-yl)piperazin-1-yl]butyl}-3,4-dihydro-1H-1-benzazepine-2,5-dione hydrochloride]: 1.24 nM and 74.
In experiment [1], `COc1cc2c(cc1OC)N(CCCCN1CCN(c3cc(C(F)(F)F)nc(C(C)(C)C)n3)CC1)C(=O)CCC2=O` [Example 6, 1-(4-{4-[2-tert-Butyl-6-(trifluoromethyl)pyrimidin-4-yl]piperazin-1-yl}butyl)-7,8-dimethoxy-3,4-dihydro-1H-1-benzazepine-2,5-dione] came in with an inhibition constant Ki of 4.5 nM. In addition, the “Selectivity vs. D2L (Ki(D2L)/Ki(D3))” value in experiment [2] amounted to 104.
